The subject of data set [1] is BALB/c mouse spleen cells and C57BL/6 mouse spleen cells. The method, then:
C. Mixed Lymphocyte Reaction (MLR)
1. C57BL/6 and BALB/c mice were killed by cervical dislocation, their spleens were removed aseptically, and a single spleen cell suspension was prepared. After the red blood cells were removed, the cell concentration was adjusted to 4×10^6/mL with RPMI-1640 medium containing 10% FBS.
2. The spleen cells of C57BL/6 mice were response cells, and the spleen cells of BALB/c mice (irradiated with Co60, 3000 rads) were stimulator cells, the two kinds of cells were mixed with equal volumes.
3. 100 μL mixed cell suspension, 100 μL test sample were added into a 96-well plate; for the control group, 100 μL medium containing 10% serum was added, and single culture controls of the two kinds of cells were set.
4. Incubated in 5% CO2 incubator at 37° C. for 3, 4 or 5 days. 25 μL ^3H dilution (i.e. […] [^3H]-thymidine) was added 1 day before the termination of the incubation.
5. The incubation was terminated, the plate was freezed in a −20° C. refrigerator.
6. The cells were harvested with a cell harvestor ([…]96®, TOMTEC) on a glass fiber film, the incorporation of [^3H]-thymidine in DNA was detected with a liquid scintillation counter (MicroBeta Trilux®, PerkinElmer), which reflected the state of cell proliferation.

Data set [2] concerns BALB/c mice. The note with it: ear swelling.
Method: Each rear paw of BALB/c mice (female, 6-8 weeks old) was sensitized with 20 μL 0.5% DNFB (2,4-dinitrofluorobenzene) on day 0, and was reinforced next day (DNFB was dissolved in an oil agent [acetone:olive oil=4:1]);
Inside and outside of left ear of the mice were challenged with 10 μL 0.4% DNFB at day 7-9;
The test sample was administrated once 1 hour before challenge by i.p. injection or intragastric adminatration. After 12 hours, administered again;
24-48 hours after challenge, each index was measured.
Note: For BALB/c mice (female, 6-8 weeks old), the concentration of sensitizing agent was 0.7%, the concentration of challenging agent was 0.6%.
The subject of a further data set is T lymphocyte. Put plainly: Lymphocyte proliferation test, T lymphocyte proliferation response induced by ConA ([3H]-thymidine). In kind it is cell-based, mouse. Particulars: 48 hours. The method, then:
B. Lymphocyte Proliferation Test […] […] 3. After incubated in 5% CO2 incubator at 37° C. for 48 hours, 0.5 μCi [^3H]-thymidine (25 μL/well) was added into each well 7-8 hours before the termination of the incubation. 4.

Another data set has as its system B lymphocyte. Put plainly: Lymphocyte proliferation test, B lymphocyte proliferation response induced by LPS ([3H]-thymidine). In kind it is cell-based, mouse. The note with it: 48 hours. The method, then:
3. After incubated in 5% CO2 incubator at 37° C. for 48 hours, 0.5 μCi [^3H]-thymidine (25 μL/well) was added into each well 7-8 hours before the termination of the incubation. 4.

For the next data set, the system named is IL-6. Particulars: for production of cytokine IL-6: 24 hours. The method, then:
(§1) D. Induction and Detection of Cytokine
(§2) 1. BALB/c mice were killed by cervical dislocation, their spleens were removed aseptically, and a single spleen cell suspension was prepared. After the red blood cells were removed, the cell concentration was adjusted to 5×10^6/mL with RPMI-1640 medium containing 10% FBS.
(§3) 2. 1 mL cell suspension, 0.5 mL test sample and 0.5 mL ConA (final concentration 5 μg/mL) or Sac (Staphylococcus aureus thallus containing staphylococcus protein A) (final concentration 0.01%) were added into […]; for the control group, 0.5 mL medium containing 10% FBS was added, the final volume was 2 mL.
(§4) 3. Incubated in 5% CO2 incubator at 37° C. for 24 or 48 hours, the supernatant was collected and freezed in −20° C. refrigerator, the cytokines was to be detected.
(§5) 4. Production of cytokines was detected with a double antibody sandwich enzyme linked immunosorbent assay (ELISA). TMB was used as substrate of the enzyme reaction, and the OD values was measured with a microplate reader at 450 nm. The production amount of cytokines of the samples was calculated according to the standard curve.

A further data set has as its system IL-2. The note with it: stimulator ConA, 24 hours. The method, then:
as §1, §2, §3, §4, §5

A further data set has as its system IL-12. Particulars: for production of cytokine IL-12: 24 hours. The method, then:
as §1, §2, §3, §4, §5

Another data set relates to TNF-α. The note with it: stimulated with PMA; dose dependent. The method, then:
as §1, §2, §3, §4, §5

The subject of the next data set is IFN-γ. The note with it: for production of cytokine IFN-γ: 24 hours. The method, then:
as §1, §2, §3, §4, §5

The subject of data set [3] is BALB/c mouse spleen cells. Put plainly: Lymphocytotoxicity test (MTT). In kind it is cell-based. Particulars: 48 hours. The method, then:
(§6) A. Lymphocytotoxicity Test
(§7) 1. BALB/c mice were killed by cervical dislocation, and their spleens were removed aseptically. A single spleen cell suspension was prepared and cell debris and clumps were removed.
(§8) 2. 80 μL cell suspension, 40 μL testing sample, 40 μL medium containing 10% FBS were added into 96 well plate; for the control group, 80 μL medium was added the total volume was 160 μL, and blank control group was set.
(§9) 3. After incubated in 5% CO2 incubator at 37° C. for 48 hours, 16 μL MTT (5 mg/mL) reagent was added into each well 6-7 hours before the termination of the incubation.

A further data set has as its system SD rats. The note with it: intraperitoneally injected.
Data set [4] deals with BALB/c mice. Particulars: administered in vivo, BALB/c mice immunized with sheep red blood cells.
Method: F. Production of Anti Sheep Red Blood Cell Specific Antibody of Mouse B Cells
Fresh sheep red blood cells (SRBC) were washed 3 times with PBS (pH7.2), and diluted by 1:20;
Fresh serum of guinea pig was diluted by 1:10;
2×10^7/mL of mouse spleen cell suspension was prepared;
Each 1 mL of the above three solutions was mixed and incubated at 37° C. for 1.5 hours, then is centrifuged with 2500 rpm×15 min. OD value was measured at 520 nM.
BALB/c mice were sensitized 3 days after administration: the sheep red blood cells were washed 3 times with saline, and the SRBC pressed volume was diluted by a rate of 5%. Each mouse was intraperitoneally injected with 0.2 mL, and dissected to take its spleen 6 days after sensitization. And the production amount of the antibodies was measured.
A short description of data set [5]: Lymphocytotoxicity test (MTT). In kind it is cell-based, mouse. The note with it: BALB/c, primary spleen cells (splenic mononuclear cells), mouse spleen cells. The method, then: as §6, §7, §8, §9
The mark [6] stands for this setting: SM735 10−^5 Mol/L, stimulator LPS.
Where [7] appears, read: SM735 10−^5 Mol/L, stimulator PMA + Ion.
Setting [8] is: SM735 10−^6 Mol/L, stimulator LPS.
Where [9] appears, read: SM735 10−^6 Mol/L, stimulator PMA + Ion.
[10] abbreviates: SM735 10−^7 Mol/L, stimulator LPS.
Where [11] appears, read: SM735 10−^7 Mol/L, stimulator PMA + Ion.

In brackets after ≈: the same amount, converted by molar mass. Read-outs that look alike come from different tables or passages of the source.

The term CC50 denotes the concentration giving 50% cytotoxicity.

In the case of `CC1CCC2C(C)C(Oc3cccc(OC(CC(=O)O)C(=O)O)c3)OC3OC4(C)CCC1C32OO4` (stereo not drawn) [compound 3, 3-(12β-artemisininoxy)phenoxy succinic acid], the “IC50, proliferation response caused by mixed lymphocyte reaction” value in [1] (96 hours) stood at 2.1 µg/mL (≈ 4.26 µM). Further, the IC50 in data set [1] (read-out: IC50, one way mixed lymphocyte reaction, co-cultured for 96 hours, no unit printed) was 860 ± 180 nM; in the data set with T lymphocyte (mean ± standard error, read-out: IC50, proliferation of spleen cells induced by ConA), 330 ± 60 nM; with T lymphocyte (mouse spleen cells, ConA, read-out: Inhibiting activity of T lymphocyte proliferation response induced by ConA IC50) it was 327 nM; with B lymphocyte (mean ± standard error, read-out: IC50, proliferation of spleen cells induced by LPS), 270 ± 20 nM; with B lymphocyte (mouse spleen cells, LPS, read-out: Inhibiting activity of B lymphocyte proliferation response induced by LPS IC50) it was 265 nM. Further, the “DTH reaction induced by DNFB” value in the data set on BALB/c mice [2] is “inhibited”. For the same compound, in the data set on T lymphocyte, the “IC50, T lymphocyte proliferation response induced by ConA” value was found to be 0.13 µg/mL (≈ 0.264 µM). The “IC50, B lymphocyte proliferation response induced by LPS” value in the data set with B lymphocyte was found to be 0.12 µg/mL (≈ 0.244 µM). The “production of cytokine IL-6” value with IL-6 (setting [6]) amounted to 522 ± 1 pg/mL; with IL-6 (setting [7]), 1465 ± 35 pg/mL; in the data set on IL-6 (setting [8]), 792 ± 42 pg/mL; with IL-6 (setting [9]) it was 2663 ± 52 pg/mL; in the data set with IL-6 (setting [10]), 840 ± 10 pg/mL; in the data set with IL-6 (setting [11]), 2886 ± 26 pg/mL. The “production of IL-6 (result in words)” value with IL-6 (stimulated with PMA, dose dependent) is reported as “obviously inhibited”. Besides, the entries for the “production of cytokine IL-2” value with IL-2 (SM735 10−^5 Mol/L), with IL-2 (SM735 10−^6 Mol/L) and with IL-2 (SM735 10−^7 Mol/L) were 2053 ± 162 pg/mL, 2343 ± 154 pg/mL and 2250 ± 77 pg/mL, respectively. The “production of cytokine IL-12” value with IL-12 (setting [6]) was 292 ± 26 pg/mL; in the data set on IL-12 (setting [7]), 198 ± 35 pg/mL; in the data set with IL-12 (setting [8]), 565 ± 18 pg/mL; in the data set with IL-12 (setting [9]) it was 487 ± 37 pg/mL; in the data set on IL-12 (setting [10]), 592 ± 33 pg/mL; in the data set with IL-12 (setting [11]) it was 586 ± 52 pg/mL. Moreover, the “production of IL-12 (result in words)” value in the data set on IL-12 (activated lymphocytes) is listed as “inhibited”. Also, the “production of TNF-α (result in words)” value with TNF-α was “obviously inhibited”. For the same compound, the “production of cytokine IFN-γ” value with IFN-γ (SM735 10−^5 Mol/L, stimulator ConA) turned out to be 322 ± 18 pg/mL; in the data set on IFN-γ (setting [6]), 103 ± 7 pg/mL; with IFN-γ (setting [7]), 144 ± 21 pg/mL; in the data set with IFN-γ (SM735 10−^6 Mol/L, stimulator ConA), 976 ± 18 pg/mL; with IFN-γ (setting [8]) it was 172 ± 2 pg/mL; in the data set on IFN-γ (setting [9]), 557 ± 31 pg/mL. Also, the “production of cytokine IFN-γ” value in the data set with IFN-γ (SM735 10−^7 Mol/L, stimulator ConA) was 1219 ± 33 pg/mL; in the data set with IFN-γ (setting [10]), 207 ± 13 pg/mL; with IFN-γ (setting [11]), 768 ± 6 pg/mL. Besides, in the data set on IFN-γ (activated lymphocytes), the “production of IFN-γ (result in words)” value is listed as “inhibited”. Also, the “cytotoxicity CC50” value in data set [3] (BALB/c mouse spleen cells) was found to be 27 µg/mL. Also, the CC50 in data set [3] (BALB/c mouse spleen cells, mean ± standard error, read-out: cytotoxicity CC50) was 53100 ± 7800 nM; in data set [3] (mouse spleen cells, read-out: Lymphocytotoxicity CC50), 52700 nM. The “effect in rat adjuvant-induced arthritis animal model” value in the data set with SD rats was “certain preventive and therapeutic effect”. Also, the “antibody and complement production by mouse B cell (antibody forming cell)” value with BALB/c mice [4] was “inhibited”.

Take `C[C@@H]1CC[C@H]2[C@@H](C)C(=O)O[C@@H]3O[C@@]4(C)CC[C@@H]1[C@]32OO4` [artemisinine, artemisinin]: the IC50 in the data set with T lymphocyte (T-lymphocyte, mouse spleen cells, ConA, read-out: Inhibiting activity of T lymphocyte proliferation response induced by ConA IC50) turned out to be 4430 nM; in the data set with B lymphocyte (Lymphocyte, mouse spleen cells, LPS, read-out: Inhibiting activity of B lymphocyte proliferation response induced by LPS IC50) it was 8960 nM. For the same compound, in data set [5], the CC50 at 48 h is 28300 nM.
